Test results as given in ChEMBL document CHEMBL1155179 (J Med Chem, 2009).

Experiments:
Format in all cases: tissue-based
[1] = molecular target: Synaptic vesicular amine transporter (Rattus norvegicus) (UniProt Q01827); experiment: Ratio of Ki for displacement of [3H]DTBZ from VMAT2 dihydrotetrabenazine binding site in rat brain synaptic vesicle to Ki for inhibition of [3H]dopamine uptake at VMAT2 in rat brain synaptic vesicle
[2] = molecular target: T1, Synaptic vesicular amine transporter (Rattus norvegicus, UniProt Q01827); experiment: Inhibition of [3H]dopamine uptake at VMAT2 in rat brain synaptic vesicle by liquid scintillation spectroscopy
T1 sequence (Q01827 whole entry): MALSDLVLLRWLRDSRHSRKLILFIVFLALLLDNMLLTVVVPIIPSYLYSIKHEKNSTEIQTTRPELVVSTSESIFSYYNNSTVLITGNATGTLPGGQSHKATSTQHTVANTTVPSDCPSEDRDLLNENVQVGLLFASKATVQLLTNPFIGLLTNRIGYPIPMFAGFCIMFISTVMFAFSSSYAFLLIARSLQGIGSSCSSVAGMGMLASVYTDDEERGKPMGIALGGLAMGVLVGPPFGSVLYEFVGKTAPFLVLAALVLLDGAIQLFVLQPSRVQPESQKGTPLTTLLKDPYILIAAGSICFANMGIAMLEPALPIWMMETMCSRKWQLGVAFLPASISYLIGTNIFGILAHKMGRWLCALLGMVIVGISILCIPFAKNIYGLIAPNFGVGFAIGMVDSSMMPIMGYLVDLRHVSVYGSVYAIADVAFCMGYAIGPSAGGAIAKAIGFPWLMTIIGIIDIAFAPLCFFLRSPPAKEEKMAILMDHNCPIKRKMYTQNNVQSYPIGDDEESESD

[3] = molecular target: T1, Synaptic vesicular amine transporter; experiment: Displacement of [3H]DTBZ from VMAT2 dihydrotetrabenazine binding site in rat brain synaptic vesicle by scintillation counting

Chain of Synaptic vesicular amine transporter (Rattus norvegicus) (Q01827 whole entry): as above

| SMILES | Ratio Ki [1] | Ki [2] [µM] | Ki [3] [µM] |
| --- | --- | --- | --- |
| c1ccc(CC[C@H]2CCC[C@@H](CCc3ccccc3)N2)cc1 | 100 | 0.023 | – |
| OC[C@@H](c1ccccc1)N1[C@@H](CCc2ccccc2)CC[C@@H]1CCc1ccccc1 | 20.7 | 0.27 | 5.61 |
| CN1[C@H](CCc2ccccc2)CC[C@H]1CCc1ccccc1 | 33.1 | 0.12 | 3.97 |
| OC[C@H](c1ccccc1)N1[C@H](CCc2ccccc2)CC[C@@H]1CCc1ccccc1 | 3.36 | 1.29 | 4.34 |
| CN1[C@@H](CCc2ccccc2)CC[C@@H]1CCc1ccccc1 | 85 | 0.17 | 14.5 |
| CN1[C@H](CCc2ccccc2)CC[C@@H]1CCc1ccccc1 | 32.6 | 0.27 | 8.8 |
| c1ccc(CC[C@H]2CC[C@H](CCc3ccccc3)N2)cc1 | 38 | 0.035 | 1.33 |
| OC[C@H](c1ccccc1)N1[C@H](CCc2ccccc2)CC[C@H]1CCc1ccccc1 | 2.6 | 1.94 | 5.05 |
| CN1[C@@H](Cc2ccccc2)CC[C@H]1Cc1ccccc1 | 130 | 0.019 | 2.46 |
| c1ccc(CC[C@@H]2CC[C@H](CCc3ccccc3)N2)cc1 | 106 | 0.029 | 3.06 |
| c1ccc(C[C@H]2CC[C@@H](Cc3ccccc3)N2)cc1 | 176 | 0.0093 | 1.64 |
| c1ccc(CC[C@@H]2CC[C@@H](CCc3ccccc3)N2)cc1 | 63 | 0.054 | 3.4 |
| OC[C@@H](c1ccccc1)N1[C@H](CCc2ccccc2)CC[C@@H]1CCc1ccccc1 | 19.6 | 0.14 | 2.75 |
| c1ccc(CCC[C@@H]2CC[C@H](CCCc3ccccc3)N2)cc1 | 19.3 | 0.014 | 0.27 |
| CN1[C@H](CCCc2ccccc2)CC[C@@H]1CCCc1ccccc1 | 23.2 | 0.12 | 2.78 |
